Source: patent US10188634B2, “3-(3H-imidazo[4,5-C]pyridin-2-yl)-1 H-pyrazolo[4,3-B]pyridines and therapeutic uses thereof” (Samumed, LLC, priority 2015, dated 2019)

Assays:
Format in all cases: cell-based
[1] = tested on: LL29 cells (primary human fibroblasts derived from IPF patients) treated with TGF-β1, α-smooth muscle actin; assay: Inhibition of the fibrotic process: αSMA staining in TGF-β1 treated primary human fibroblasts from IPF patients (LL29 cells); settings: Fibroblast, 96 h; for EC50: LL29 cells treated with TGF-β1 (20 ng/mL), 4 days
From the text: Representative compounds were screened using primary human fibroblasts (derived from IPF patients) treated with TGF-β1 to determine their ability to inhibit the fibrotic process.
Human Fibroblast Cell Culture: Primary human fibroblasts derived from IPF patients (LL29 cells) [^1Xiaoqiu Liu, et.al., “Fibrotic Lung Fibroblasts Show Blunted Inhibition by cAMP Due to Deficient cAMP Response Element-Binding Protein Phosphorylation”, Journal of Pharmacology and Experimental Therapeutics (2005), 315(2), 678-687; ^2Watts, K. L., et.al., “RhoA signaling modulates cyclin D1 expression in human lung fibroblasts; implications for idiopathic pulmonary fibrosis”, Respiratory Research (2006), 7(1), 88] were obtained from American Type Culture Collection (ATCC) and expanded in F12 medium supplemented with 15% Fetal Bovine Serum and Penicillin/Streptomycin.
Compound Screening: Each compound was dissolved in DMSO as a 10 mM stock and used to prepare compound source plates. […] LL29 cells are plated at 1,500 cells/well in 80 μL/well F12 medium supplemented with 1% Fetal Bovine Serum. One hour after addition of the cells, TGF-β1 (Peprotech; 20 ng/mL) was added to the plates to induce fibrosis (ref. 1 and 2 above). Wells treated with TGF-β1 and containing DMSO were used as controls. Cells were incubated at 37° C. and 5% CO2 for 4 days. Following incubation for 4 days, SYTOX green nucleic acid stain (Life Technologies [Thermo Fisher Scientific]) was added to the wells at a final concentration of 1 μM and incubated at room temperature for 30 min. Cells were then fixed using 4% formaldehyde (Electron Microscopy Sciences), washed 3 times with PBS followed by blocking and permeabilization using 3% Bovine Serum Albumin (BSA; Sigma) and 0.3% Triton X-100 (Sigma) in PBS. Cells were then stained with antibody specific to α-smooth muscle actin (αSMA; Abcam) (ref. 1 and 2 above) in 3% Bovine Serum Albumin (BSA; Sigma) and 0.3% Triton X-100 (Sigma) in PBS, and incubated overnight at 4° C. Cells were then washed 3 times with PBS, followed by incubation with Alexa Flor-647 conjugated secondary antibody (Life Technologies [Thermo Fisher Scientific]) and DAPI at room temperature for 1 hour. Cells were then washed 3 times with PBS and plates were sealed for imaging. αSMA staining was imaged by excitation at 630 nm and emission at 665 nm and quantified using the Compartmental Analysis program on the CellInsight CX5 (Thermo Scientific). Dead or apoptotic cells were excluded from analysis based on positive SYTOX green staining. % of total cells positive for αSMA were counted in each well and normalized to the average of 11 wells treated with TGF-β1 on the same plate using Dotmatics' Studies Software. The normalized averages (fold change over untreated) of 3 replicate wells for each compound concentration were used to create dose-responses curves and EC50 values were calculated using non-linear regression curve fit in the Dotmatics' Studies Software. For EC50 of >10 μM, the percent inhibition at 10 μM is provided.

[2] = tested on: Wnt activity (Sp5-Luc reporter, human Sp5 promoter with eight TCF/LEF binding sites) in SW480 colon carcinoma cells; assay: Screening assay for Wnt activity: Sp5-Luc reporter gene assay in SW480 cells; settings: 10-point dose-response starting from 10 μM, overnight incubation
From the text: The screening assay for Wnt activity is described as follows. Reporter cell lines can be generated by stably transducing cancer cell lines (e.g., colon cancer) or primary cells (e.g., IEC-6 intestinal cells) with a lentiviral construct that includes a Wnt-responsive promoter driving expression of the firefly luciferase gene.
SW480 colon carcinoma cells were transduced with a lentiviral vector expressing luciferase with a human Sp5 promoter consisting of a sequence of eight TCF/LEF binding sites. SW480 cells stably expressing the Sp5-Luc reporter gene and a hygromycin resistance gene were selected by treatment with 150 μg/mL of hygromycin for 7 days. These stably transduced SW480 cells were expanded in cell culture and used for all further screening activities. Each compound was dissolved in DMSO as a 10 mM stock and used to prepare compound source plates. Serial dilution (1:3, 10-point dose-response curves starting from 10 μM) and compound transfer was performed using the ECHO 550 (Labcyte, Sunnyvale, Calif.) into 384-well white solid bottom assay plates (Greiner Bio-One) with appropriate DMSO backfill for a final DMSO concentration of 0.1%. For Sp5-Luc reporter gene assays, the cells were plated at 4,000 cells/well in 384-well plates with medium containing 1% fetal bovine serum and incubated overnight at 37° C. and 5% CO2. Following incubation, 20 μl of BrightGlo luminescence reagent (Promega) was added to each well of the 384-well assay plates. The plates were placed on an orbital shaker for 2 min and then luminescence was quantified using the Envision (Perkin Elmer) plate reader. Readings were normalized to DMSO only treated cells, and normalized activities were utilized for EC50 calculations using the dose-response log (inhibitor) vs. response -variable slope (four parameters) nonlinear regression feature available in GraphPad Prism 5.0 (or Dotmatics). For EC50 of >10 μM, the percent inhibition at 10 μM is provided.

SW480 colon cancer cells = assay: Cell viability assay (CellTiter-Blue) in SW480 colon cancer cells; settings: Homo sapiens, 96 h; for EC50: four days incubation, CellTiter-Blue cell viability; for inhibition at 10 µM: four days, CellTiter-Blue, read-out: percent inhibition at 10 μM (given for EC50 of >10 μM)
Procedure: Representative compounds were screened using the following assay procedure to assess the effect on cell viability as described below.
Each compound was dissolved in DMSO as a 10 mM stock and used to prepare compound source plates. Serial dilution (1:3, 8-point dose-response curves from 10 μM to 0.004 μM) and compound transfer was performed using the ECHO 550 (Labcyte, Sunnyvale, Calif.) into 96-well clear bottom, black-walled plates (Corning-Costar).
Approximately 2×10^3 SW480 colon cancer cells were seeded into each well and allowed to incubate in the presence or absence of compound for four days at 37° C./5% CO2. Eight replicates of DMSO-treated cells served as controls and cells treated with compound were performed in duplicate.
After incubation, 20 μL of CellTiter-Blue (Promega) was added to each well allowed to incubate for approximately 3 hours. This reagent was a buffered solution which contains resazurin, metabolically active cells were able to reduce rezarurin (blue) into resorufin (pink) which was highly fluorescent. This measured fluorescence was used as a readout for cell viability.
After incubation, the plates were read at Ex 560 nm Em 590 nm (Cytation 3, BioTek). Dose-response curves were generated and EC50 concentration values were calculated using non-linear regression curve fit in the GraphPad Prism (San Diego, Calif.) or Dotmatics' Studies Software (Bishops Stortford, UK). For EC50 of >10 μM, the percent inhibition at 10 μM is provided.

IL-6 in THP-1 cells = assay: Inhibition of IL-6 in LPS-stimulated THP-1 human monocyte cells (HTRF); settings: 500 ng/mL LPS, 22 hours, IL-6 HTRF
Procedure: Human Monocyte Cell Culture: Human monocyte cell line (THP-1 cells; Catalog # TIB-202, ATCC, Manassas, Va.) were cultured in Roswell Park Memorial Institute (RPMI) 1640 Medium (Catalog #21870-100, Buffalo, N.Y.) with 1% L-glutamine, 1% HEPES, 1% Sodium Pyruvate, 2% Sodium Bicarbonate supplemented with 100 units/mL penicillin, 50 μg/mL streptomycin, 2-mercaptoethanol (0.05 mM) [basal medium] and 10% fetal bovine serum (Catalog #16140089, Life Technologies, Carlsbad, Calif.) at 37° C. and 5% CO2.
Compound Screening: THP-1 cells were cultured in basal media with 1% FBS for 24 hours before the start of the assay. Each compound was dissolved in DMSO as a 10 mM stock and used to prepare compound source plates. Serial dilution (1:3, 10-point dose-response curves starting from 10 μM) and compound transfer was performed using the ECHO 550 (Labcyte, Sunnyvale, Calif.) into 384-well white low volume assay plates (Greiner Bio-One) with appropriate DMSO backfill for a final DMSO concentration of 0.1%. THP-1 cells were plated at 5000 cells/well in the 384-well plates and incubated at 37° C. for 2 h. 500 ng/mL of LPS was added after 2 hours and cells were incubated for another 22 hours at 37° C. Plates were spun in a centrifuge for 1 minute at […] and a mixture of anti-IL6 XL665, and anti-IL6 Cryptate diluted in reconstitution buffer (Cisbio Inc.) was added to each well. Following incubation for 3 hrs at room temperature, Homogeneous Time-Resolved Fluorescence (HTRF) was measured using the Envision (Perkin Elmer) at 665 nm and […]. The ratio of fluorescence at 665 nm to 620 nm was used as a readout for IL6 quantification. All samples were processed in duplicate. Readings were normalized to DMSO treated cells and normalized activities were utilized for EC50 calculations using the dose-response log (inhibitor) vs. response -variable slope (four parameters) nonlinear regression feature available in GraphPad Prism 5.0 (or Dotmatics). For EC50 of >10 μM, the percent inhibition at 10 μM is provided.

| EC50 [2] | EC50 (SW480 colon cancer cells) | EC50 (IL-6 in THP-1 cells) | SMILES | EC50 [1] | inhibition at 10 µM (SW480 colon cancer cells) | inhibition at 10 µM ([1]; LL29 cells treated with TGF-β1, 4 days, at 10 μM, read-out: percent inhibition in brackets (given for EC50 >10 μM)) |
| --- | --- | --- | --- | --- | --- | --- |
| 4.63 µM | 4.6 µM | 1.6 µM | CN1CCN(c2cncc3[nH]c(-c4n[nH]c5ccc(-c6cncc(OCc7ccccc7)c6)nc45)nc23)CC1 [Compound 618, 5-(5-(Benzyloxy)pyridin-3-yl)-3-(7-(4-methylpiperazin-1-yl)-3H-imidazo[4,5-c]pyridin-2-yl)-1H-pyrazolo[4,3-b]pyridine] | 1.9 µM | – | – |
| 4.62 µM | > 10 µM | 0.435 µM | c1cc(-c2cncc3[nH]c(-c4n[nH]c5ccc(-c6cncc(OCCN7CCCC7)c6)nc45)nc23)co1 [Compound 646, 3-(7-(Furan-3-yl)-3H-imidazo[4,5-c]pyridin-2-yl)-5-(5-(2-(pyrrolidin-1-yl)ethoxy)pyridin-3-yl)-1H-pyrazolo[4,3-b]pyridine] | 3.84 µM | 33.1% | – |
| 0.849 µM | 1.77 µM | 7.04 µM | COc1cncc(-c2ccc3[nH]nc(-c4nc5c(-c6ccoc6)cncc5[nH]4)c3n2)c1 [Compound 648, 3-(7-(Furan-3-yl)-3H-imidazo[4,5-c]pyridin-2-yl)-5-(5-methoxylpyridin-3-yl)-1H-pyrazolo[4,3-b]pyridine] | 0.404 µM | – | – |
| 4.03 µM | 4.63 µM | 0.003 µM | Cc1ccc(-c2cncc3[nH]c(-c4n[nH]c5ccc(-c6cncc(OC7CCCCC7)c6)nc45)nc23)s1 [Compound 691, 5-(5-(Cyclohexyloxy)pyridin-3-yl)-3-(7-(5-methylthiophen-2-yl)-3H-imidazo[4,5-c]pyridin-2-yl)-1H-pyrazolo[4,3-b]pyridine] | 1.75 µM | – | – |
| 3.85 µM | > 10 µM | 1.17 µM | Cc1ncc(-c2ccc3[nH]nc(-c4nc5c(-c6cc(F)cc(NCCN(C)C)c6)cncc5[nH]4)c3n2)n1C [Compound 737, N^1-(3-(2-(5-(1,2-Dimethyl-1H-imidazol-5-yl)-1H-pyrazolo[4,3-b]pyridin-3-yl)-3H-imidazo[4,5-c]pyridin-7-yl)-5-fluorophenyl)-N^2,N^2-dimethylethane-1,2-diamine] | 8.95 µM | 46.5% | – |
| 2.72 µM | 3.3 µM | 1.6 µM | CN(C)CCNc1cc(F)cc(-c2cncc3[nH]c(-c4n[nH]c5ccc(-c6cncc(OCc7ccccc7)c6)nc45)nc23)c1 [Compound 746, N^1-(3-(2-(5-(5-(Benzyloxy)pyridin-3-yl)-1H-pyrazolo[4,3-b]pyridin-3-yl)-3H-imidazo[4,5-c]pyridin-7-yl)-5-fluorophenyl)-N^2,N^2-dimethylethane-1,2-diamine] | 2.93 µM | – | – |
| 3.95 µM | 3.74 µM | 4.23 µM | CN(C)CCNc1cc(F)cc(-c2cncc3[nH]c(-c4n[nH]c5ccc(-c6cnccn6)nc45)nc23)c1 [Compound 748, N^1-(3-Fluoro-5-(2-(5-(pyrazin-2-yl)-1H-pyrazolo[4,3-b]pyridin-3-yl)-3H-imidazo[4,5-c]pyridin-7-yl)phenyl)-N^2,N^2-dimethylethane-1,2-diamine] | > 10 µM | – | 41.3% |
